Data reported in patent EP2958933B1, “CROSSLINKED PEPTIDE HYDROGELS” (Agency for Science, Technology and Research, priority 2013, dated 2018).
Peptide text beside a SMILES is read from it.

Columns and labels:
[1] = Concentration dependence of self-assembly (aggregates, fibers); type: physicochemical
Text: An amphiphilic linear sequence of an amphiphilic peptide and/or peptoid disclosed herein, including an amphiphilic linear peptide and/or peptoid, is capable of providing a self assembling α-helical fiber in aqueous solution under physiological conditions. The peptides/peptoids (typically 3-7-mers) in the L- or D-form can self assemble into supramolecular helical fibers which are organized into mesh-like structures mimicking biological substances such as collagen. It has previously been observed in X-ray crystallography that peptides of a length of 3 to 6 amino acids with repetitive alanine containing sequences and an acetylated […] take a helical conformation (Hatakeyama, Y, et al, Angew. Chem. Int. Ed. (2009) 8695-8698). Using peptides with an amphiphilic sequence disclosed herein, Ac-LD6 (L), the formation of aggregates has for example been observed already at 0.1 mg/ml. […] With a formation of fibers occurring under physiological conditions at concentrations below 2 mM a peptide/peptoid disclosed herein is well suited as an injectable hydrogel material that can form a hydrogel under physiological conditions. Also disclosed herein is an amphiphilic linear peptide and/or peptoid as defined above for tissue engineering as well as to a tissue engineering method that involves applying, including injecting a respective amphiphilic linear peptide and/or peptoid.

[2] = Oscillation rheology of casted crosslinkable gels (frequency and amplitude sweep); type: physicochemical; conditions: for gel stiffness on LK6-doping: final concentration 12 mM, cast-and-soak 0.06% H2O2 two hours; for stiffness after water soak: without oxidation
Method: Peptide was dissolved in 200 µL of water +/- H2O2 and filled into custom-made hollow ring casts (diameter ∼1 cm). The ring ends were sealed with parafilm to minimise evaporation and the cast was kept at 25°C for 22 hours before further manipulations.
Rheology: The rheological properties of casted gels were measured with an ARES-G2 (TA Instruments, USA) using the oscillation method. Frequency-sweep studies were performed with ω=0-100 rad/s at strain, γ=0.1%. The gel stiffness was represented by plotting G' against ω. Amplitude-sweep studies were performed beforehand at 1 Hz with γ=0-100%. The LVE limit of the gel was defined as the value of γ when G' first dropped below 90% of the average initial value.
The rheological properties of casted gels were measured with an ARES-G2 (TA Instruments, USA) using the oscillation method. Frequency-sweep studies were performed with ω=0-100 rad/s at strain, γ=0.1%. The gel stiffness was represented by plotting G' against ω. Amplitude-sweep studies were performed beforehand at 1 Hz with γ=0-100%. The LVE limit of the gel was defined as the value of γ when G' first dropped below 90% of the average initial value.

[3] = Water soak of casted gels (resistance to degradation, shape retention); type: physicochemical; conditions: non-oxidised gels, 24 hours of water soak
[4] = Determination of a suitable gelation concentration; type: physicochemical; conditions: for working concentration at which gels are formed: gels with sufficient mechanical integrity to withstand handling / gel formation
Text: Reference is now made to the figures, wherein: • Figures 1A to 1M represent a sorted list of some exemplary peptides capable of forming hydrogels. These peptides are examples in which the entire peptide consists of a single linear amphiphilic sequence. Peptides which are forming hydrogels are named with a short code, but their individual sequence is disclosed. The peptides of these examples consist of a sequence of natural amino acids containing 3 to 7 amino acids. The N-terminus is acetylated which removes the charge that would otherwise restrain the amphiphilic character of the peptides. • Figure 2 depicts gelation pictures for peptide based hydrogels at lowest concentrations. • Figure 3 depicts gelation pictures for Ac-AS-6 (Ac-AIVAGS) (L) at concentrations of 5 mg/ml, 10 mg/ml, 15 mg/ml. • Figure 4 depicts a hypothesis of self-assembly from peptide monomers to supramolecular network of condensed fibers. (A) Assembly is believed to initiate with antiparallel pairing of two peptide monomers by changing to α-helical conformations. Subsequently, peptide pairs assemble to fibers and nanostructures. Condensation of peptide fibers to fiber aggregates results in hydrogel formation. • Figure 5 depicts environmental scanning electron microscopy (ESEM) images of hydrogels of Ac-LD6 (Ac-LIVAGD) (L) (10 mg/ml), where Fig. 5A, Fig. 5B and Fig. 5C are images obtained at magnification of 260X, 1000X, 2000X, 2400X, 4000X at a temperature of 4 °C with HV at 10KV. […] 8A), and 450 X (fig. […] (a) A honeycomb porous structure is observed following lyophilization of 20 mg/mL Ac-AD6 (Ac-AIVAGD) (D) hydrogel. The pores are bounded by membranes of condensed fibers as shown in close-up views of 15 mg/mL (b) and 20 mg/mL (c) Ac-ID3 (Ac-IVD) (L) hydrogels. […] Heating the samples to facilitate gelation increased the β type aggregation. […] (e) Far-UV CD spectra of AcID3 (Ac-IVD) at different concentrations. […] (a, b) The high mechanical strengths of different peptide hydrogels at 20 mg/mL concentration was determined by measuring storage moduli (G') as a function of angular frequency under 0.1% strain, at 25°C and 50°C respectively. […] (c) Mechanical strength is a function of concentration, as determined from oscillatory frequency sweep studies using Ac-LD6 (Ac-LIVAGD) (L) under 0.1% strain at 25°C. […] LK6 gels were therefore casted at different concentrations and their stiffness was measured (average ± s.d. of triplicates). As expected, G' values increased with peptide concentration and it was determined that a working concentration of 12 mM afforded gels with sufficient mechanical integrity to withstand handling. […]

[5] = system: Fibroblasts isolated from the cornea/sclera of New Zealand White rabbits; assay: Quantification of cell-spread area (ImageJ); type: cell-based; conditions: various gel cultures, ANOVA p<0.05
Text: (§1) Reference is now made to the figures, wherein: • Figures 1A to 1M represent a sorted list of some exemplary peptides capable of forming hydrogels. These peptides are examples in which the entire peptide consists of a single linear amphiphilic sequence. Peptides which are forming hydrogels are named with a short code, but their individual sequence is disclosed. The peptides of these examples consist of a sequence of natural amino acids containing 3 to 7 amino acids. […] (a, b) The high mechanical strengths of different peptide hydrogels at 20 mg/mL concentration was determined by measuring storage moduli (G') as a function of angular frequency under 0.1% strain, at 25°C and 50°C respectively. […] (c) Mechanical strength is a function of concentration, as determined from oscillatory frequency sweep studies using Ac-LD6 (Ac-LIVAGD) (L) under 0.1% strain at 25°C. […] LK6 gels were therefore casted at different concentrations and their stiffness was measured (average ± s.d. of triplicates). As expected, G' values increased with peptide concentration and it was determined that a working concentration of 12 mM afforded gels with sufficient mechanical integrity to withstand handling. […]

HepG2 cells [6] = assay: 3D cell culture on gels, calcein live-cell staining; type: cell-based; conditions: purified gels conjugated with different concentrations of RGD, after four days
Method: LK6C +/- CRGD gels were casted directly into 8-chamber Lab-Tek® wells (Nunc, NY, USA) and purified as reported in the SI. 0.5 mL of cell suspension in regular completed DMEM (Invitrogen, Singapore) was either seeded onto the gel or directly into the well (2D control) and incubated for four days. 0.5 µL of calcein-AM (Invitrogen) was then added to the media to identify live cells and images were captured using a confocal microscope (LSM5 DUO, Carl Zeiss, Germany). Beforehand, calcein-AM was verified to stain only live cells as ethanol- and H2O2-treated cells excluded the dye. All images, except for the 2D controls, were presented as mergers of several z-stacks. To further verify the 3D distribution of cells, the gel was embedded vertically in Jung Tissue Freezing Medium (Leica Instruments GmbH, Germany) and 20 µm cross-sectional slices were obtained with a cryostat (CM3050 S, Leica). Sections were mounted with coverslips and imaged as above.
To test for biocompatibility, HepG2 cells were either seeded directly into wells (2D control) or onto purified LK6C gels conjugated with different concentrations of RGD. […] This was repeated with primary rabbit fibroblasts (Figure 35), 3T3 murine fibroblasts (Figure 38) and NIH-3T3 murine fibroblasts (data not shown), confirming the biocompatibility of the gels. With regular media changes, cells remained viable for at least 3 weeks (Figure 38). […]

V79 = assay: Direct contact V79 colony assay (GLP); type: cell-based
[7] = system: Fibroblasts isolated from the cornea/sclera of New Zealand White rabbits; assay: 3D primary cell culture on gels, calcein live-cell staining; type: cell-based; conditions: purified gels +/- various concentrations of CRGD, four days
Text: as §1

skins of guinea pigs = assay: Direct contact Kligman maximization test (GLP, ISO 10993-10); type: in vivo
HepG2 cells [8] = assay: Quantification of cell-spread area (ImageJ); type: cell-based; conditions: gel culture in the presence or absence of RGD
Text: Confocal images after calcein staining were processed using ImageJ (NIH, USA) to obtain the average cell-spread area under various culture conditions. For cells in 3D gel culture, images used for quantification were mergers of several z-stacks to capture the maximum cell-spread area. In all cases, at least three independent experiments with at least two locations selected from each culture were used for averaging.

Compound | concentration at which formation of aggregates is observed [1] [µg/mL] | concentration at which peptide monomers align to form fibrous structures [1] [µg/mL] | gel stiffness on LK6-doping [2] | gel degradation after water soak [3] | material needed for gelation [4] [mg/mL] | working concentration at which gels are formed [4] [mM] | cell-spread area vs 2D culture [5] | cell viability (calcein staining) (HepG2 cells [6]) | toxicity (V79) | shape and stiffness after water soak ([2]; 12 mM gel, 2 or 24 hours cast-and-soak or 22 hours in situ oxidation with 0.06% H2O2, up to four days of water soak) | stiffness after water soak ([2]; 12 mM gel, 24 hours of water soak) | stiffness after water soak ([2]; 12 mM gel, two hours of water soak) | stiffness (G') following oxidation ([2]; compared to non-oxidised gels, different oxidation regimes) | linear viscoelastic (LVE) limit (elasticity), increase following oxidation ([2]; oxidised vs non-oxidised gels, cast-and-soak 2-24 hours 0.06% H2O2 or in situ 24 hours 0.03-0.1% H2O2) | cell viability (calcein staining) [7] | sensitization (skins of guinea pigs) | cell spreading vs regular 2D culture (HepG2 cells [8])
CC[C@H](C)[C@H](NC(=O)[C@H](CC(C)C)NC(C)=O)C(=O)N[C@H](C(=O)N[C@@H](C)C(=O)NCC(=O)N[C@@H](CC(=O)O)C(=O)O)C(C)C [Ac-LD6 (L), Ac-LIVAGD-COOH] (Ac-LIVAGD-OH) | 100 | 1000 |  |  |  |  |  |  |  |  |  |  |  |  |  |  | 
LIVAGK [LK6] |  |  | relatively stiff | completely degraded | 25 | 12 |  |  |  |  |  |  |  |  |  |  | 
LIVAGKC [LK6C, cross-linkable peptide, LK6 modified with a cysteine residue at the C-terminus; forms hydrogels] |  |  | relatively stiff |  | 10 | 12 | spreaded more in 2D culture compared to those in the various gel cultures | viable | no significant toxicity | maintained their shapes and in fact, became stiffer | broke down and lost their stiffness | could maintain their stiffness | either maintained or increased | 2.4-3.8 fold | viable fibroblasts were seen in all cases | no sensitization | insignificant effects (p>0.05)
